Measurements reported in patent US9512180B2, “Compstatin analogs” (THE REGENTS OF THE UNIVERSITY OF CALIFORNIA, priority 2012, dated 2016).

Experiments:
[1] = Aqueous solubility by concentration measurement (absorbance at 280 nm) of saturated peptide solutions; type: physicochemical; details: saturated peptide solutions, absorbance at 280 nm; read-out: approximate aqueous solubility
Experimental: The relative lipophilicities of Peptides I, III, VI, IX, and Parent are inversely consistent with solubilities as determined via concentration measurement (absorbance at 280 nm) of saturated peptide solutions, with Peptides I, III, and Parent having approximate aqueous solubilities of >1 mM, Peptide VI>500 μM, and Peptide IX<500 μM.

[2] = RP-HPLC relative lipophilicity (retention factor k, log k); type: physicochemical
Experimental: The effect of the hydrophobic content of compstatin family peptides on relative lipophilicity was evaluated using RP-HPLC, a widely applied indirect technique for the determination of the lipophilicity of drugs and drug candidates. The determination of log P by RP-HPLC is based on the measurement of the retention factor k between the mobile and stationary phase (Eq. 7) of the investigated compound:
[formula] where tR is the retention time of the analyte, and to is the elution time of an unretained analyte. The logarithm of the retention factor is linearly correlated with the logarithm of the partition coefficient log P=a log k+b (8). where a and b are the slope and intercept of the linear equation.
The determination of log P values requires calibration using structurally related compounds, and is beyond the scope of this study. Instead the log k values were used to indicate the relative lipophilicities of this compstatin peptide family.
HPLC experiments were carried out using an Agilent 1100 HPLC with UV detection at 280 nm at 25° C. Separations were performed on a Waters (Milford, Mass.) 4.6×150 mm XTerra MS C18 column with 5 μm pore size using a mobile phase of A: 10 mM phosphate buffer pH=7.4 containing 1% TFA, and B: acetonitrile. The purity of the peptides was verified by an isocratic separation at 28% B and a flow rate of 1 mL/min. Solutions containing 0.6-0.8 mg/mL of Peptides I, III, VI, IX and the parent peptide were prepared in methanol and diluted 5-times with the eluent. All five peptides eluted as single peaks indicating a high degree of purity (FIG. 10).
For the determination of the relative lipophilicities a solution containing each of the peptides was prepared from the stock solutions and injected in triplicate. […] A 0.5 mg/mL solution of aspartic acid was used as the unretained analyte for the determination of the column dead time, 1.439±0.003 min.
RP-HPLC was used to measure the hydrophobicity/lipophilicity content of the compstatin family peptides. The retention of a compound in RP-HPLC depends on its hydrophobicity/lipophilicity content, and is correlated to the octanol-water partition ratio. Lipophilicity describes the partitioning of a compound between an aqueous and a lipidic/hydrophobic environment, and is an essential physicochemical parameter to determine pharmacokinetic behavior according to ADME (absorption, distribution, metabolism, excretion) characterization. Because the compstatin family peptides consist of a hydrophobic and a polar surface, their ability to bind to the hydrophobic cavity of C3, while maintaining a solvent-exposed face has been evaluated here as lipohilicity content, measured by RP-HPLC. In addition, lipohilicity is inversely proportional to aqueous solubility, and therefore can be used to estimate solubility of the peptides in their free (unbound) state.

rC3 = rC3 (Rattus norvegicus, UniProt P01026); assay: Experimental activity against rC3 (method not described)
Sequence of rC3 (P01026 25-1663): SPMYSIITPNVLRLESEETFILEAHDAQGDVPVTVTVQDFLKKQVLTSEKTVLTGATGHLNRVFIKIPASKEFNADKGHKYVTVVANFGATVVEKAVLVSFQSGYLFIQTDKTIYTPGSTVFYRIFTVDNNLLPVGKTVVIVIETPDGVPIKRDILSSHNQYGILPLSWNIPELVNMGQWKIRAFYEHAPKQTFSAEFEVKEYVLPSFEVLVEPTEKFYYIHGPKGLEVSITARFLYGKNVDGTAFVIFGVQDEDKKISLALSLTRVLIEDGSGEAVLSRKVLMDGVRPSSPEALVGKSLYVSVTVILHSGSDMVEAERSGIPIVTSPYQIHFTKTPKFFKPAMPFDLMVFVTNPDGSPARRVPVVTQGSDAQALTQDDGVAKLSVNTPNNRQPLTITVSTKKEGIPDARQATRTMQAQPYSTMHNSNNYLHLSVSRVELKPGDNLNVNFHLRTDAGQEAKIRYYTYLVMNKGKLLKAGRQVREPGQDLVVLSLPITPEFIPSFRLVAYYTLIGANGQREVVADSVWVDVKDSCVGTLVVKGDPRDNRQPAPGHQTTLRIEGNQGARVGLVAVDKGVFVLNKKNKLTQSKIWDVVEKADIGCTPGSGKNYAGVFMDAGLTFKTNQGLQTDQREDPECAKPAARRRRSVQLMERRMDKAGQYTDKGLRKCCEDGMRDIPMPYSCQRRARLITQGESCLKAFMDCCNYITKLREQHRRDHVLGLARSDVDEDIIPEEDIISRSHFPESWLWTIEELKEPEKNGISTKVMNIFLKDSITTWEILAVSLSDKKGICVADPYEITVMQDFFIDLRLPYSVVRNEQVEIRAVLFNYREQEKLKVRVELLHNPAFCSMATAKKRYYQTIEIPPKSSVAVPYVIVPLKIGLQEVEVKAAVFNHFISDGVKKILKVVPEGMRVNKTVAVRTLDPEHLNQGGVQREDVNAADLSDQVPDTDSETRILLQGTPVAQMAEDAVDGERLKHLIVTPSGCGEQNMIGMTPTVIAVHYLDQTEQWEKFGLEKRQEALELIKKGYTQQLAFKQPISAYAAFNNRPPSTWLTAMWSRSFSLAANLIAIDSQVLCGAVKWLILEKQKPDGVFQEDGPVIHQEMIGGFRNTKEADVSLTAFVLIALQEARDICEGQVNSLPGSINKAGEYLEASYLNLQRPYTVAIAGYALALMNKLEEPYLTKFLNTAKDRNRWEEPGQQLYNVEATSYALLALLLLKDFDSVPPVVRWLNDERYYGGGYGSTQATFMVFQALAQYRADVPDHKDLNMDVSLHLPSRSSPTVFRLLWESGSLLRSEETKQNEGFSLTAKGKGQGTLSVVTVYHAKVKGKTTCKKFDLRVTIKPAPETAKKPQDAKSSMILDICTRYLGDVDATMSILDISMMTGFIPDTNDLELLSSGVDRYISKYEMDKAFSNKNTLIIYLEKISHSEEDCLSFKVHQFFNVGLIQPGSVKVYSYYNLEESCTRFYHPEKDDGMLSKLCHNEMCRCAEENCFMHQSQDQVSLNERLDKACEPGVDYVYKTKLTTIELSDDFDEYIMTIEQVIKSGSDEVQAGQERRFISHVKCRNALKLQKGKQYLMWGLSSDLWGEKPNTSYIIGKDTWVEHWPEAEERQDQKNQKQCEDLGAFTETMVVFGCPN

**Q.** For `CC[C@H](C)[C@H](NC(C)=O)C(=O)N[C@H]1CSSC[C@@H](C(=O)N[C@H](C(N)=O)[C@@H](C)O)NC(=O)[C@H](CCCNC(=N)N)NC(=O)[C@H](Cc2c[nH]cn2)NC(=O)[C@H](C)NC(=O)CNC(=O)[C@H](Cc2c[nH]c3ccccc23)NC(=O)[C@H](CC(=O)O)NC(=O)[C@H](CCC(N)=O)NC(=O)[C@H](Cc2c[nH]c3ccccc23)NC(=O)[C@H](C(C)C)NC1=O` [Peptide IX, Ac- ICV WQDWGA HRCT-NH2, reference compound], which solubility [1] is on record?
**A.** The solubility was < 500 µM.

**Q.** And the “Retention factor (k)” value [2]?
**A.** The value was 11.429.

**Q.** What about the logk [2] of the same molecule?
**A.** The logk was 1.058.

**Q.** And the “activity against rC3 (in words)” value (rC3)?
**A.** Its value is “inactive”.
